“Also recorded” adds a separate entry of the source.
Columns and labels:
[1] = molecular target: T1, Recombinant, full-length human HDAC1 (Homo sapiens, UniProt Q13547); assay: Primary HDAC1 high-throughput screen, microfluidics-based deacetylase assay, single concentration; assay type: biochemical; conditions: for Average activation % during HTS (10 μM): substrate FAM-TSRHKacKL; for Percent activation (%) Replicate 1 / Percent activation (%) Replicate 2: high-throughput screening, 6 h; for Average activation % during HTS (10 μM) / Percent activation (%) Replicate 1 / Percent activation (%) Replicate 2: 10 μM
T1 construct: FLAG (C); purchased BPS Biosciences (San Diego, Calif.); host or cells: insect cells (Sf9)
T1 sequence (Q13547 whole entry): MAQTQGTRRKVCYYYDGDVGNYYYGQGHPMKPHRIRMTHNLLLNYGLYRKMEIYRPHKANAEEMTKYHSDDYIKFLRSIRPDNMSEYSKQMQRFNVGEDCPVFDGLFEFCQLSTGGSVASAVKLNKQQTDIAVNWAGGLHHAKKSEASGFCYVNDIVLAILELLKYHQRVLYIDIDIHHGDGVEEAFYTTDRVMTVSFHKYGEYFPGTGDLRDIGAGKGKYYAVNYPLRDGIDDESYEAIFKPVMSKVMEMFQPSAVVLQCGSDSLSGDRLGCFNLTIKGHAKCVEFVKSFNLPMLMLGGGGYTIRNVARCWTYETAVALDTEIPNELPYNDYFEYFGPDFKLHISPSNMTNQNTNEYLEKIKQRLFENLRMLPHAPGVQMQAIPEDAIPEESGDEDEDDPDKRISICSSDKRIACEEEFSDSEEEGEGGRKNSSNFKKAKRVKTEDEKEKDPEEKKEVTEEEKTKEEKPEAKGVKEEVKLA
Protocol: Recombinant, full-length human HDAC1 (GenBank Accession No. NM_004964) with a C-terminal FLAG tag was produced by BPS Biosciences (San Diego, Calif.) using large-scale insect cell protein expression and purification in order to support a large-scale high-throughput screen (HTS).
Compounds were tested with a reaction time of 6 h with compounds tested at a single concentration (10 μM) in duplicate. As a positive control, the biflavonoid gingketin was chosen.
Compounds were tested in duplicate at 10 μM nominal final concentration in 384-well plate format. The reference activator compound, ginkgetin (50 μM), was included in duplicates in each HTS plate as a positive control condition, 24 negative control samples (DMSO only) were included in each plate to provide for the 0% activation baseline.
Within each HTS plate, the effect of individual compounds on the enzymatic activity of HDAC1 was calculated as % change in the conversion of the peptide substrate relative to the average substrate conversion value calculated across the 24 negative control samples.

recombinant HDAC1 = molecular target: T2, recombinant HDAC1 (Homo sapiens, UniProt Q13547); assay: Secondary HDAC1 microfluidics-based assay, 8-point dose response, substrate FAM-TSRHKacKL; assay type: biochemical; conditions: for Emax: read-out: Maximum activation % during dose response (50 μM maximum); for AC50 / activation of up to (HDAC1): dose response 50 μM to 0.02 μM
T2 construct: FLAG (C); purchased BPS Biosciences (San Diego, Calif.); host or cells: insect cells (Sf9)
T2 sequence (Q13547 whole entry): as above

DIV 14 cortical neurons = assay: Neuronal excitotoxicity model, MAP2 staining of dendrites; assay type: cell-based; conditions: compound 20 h; 50 μM glutamate 1 h; p<0.01 for significant
Protocol: The neuroprotection potential of the candidate compounds were also tested using a neuronal excitoxicity model. DIV 14 cortical neurons were treated with the compounds for 20 h, 50 μM glutamate was added to the culture 1 h before processing the samples for immunocytochemistry. […] Ginkgetin was used as a positive control.

HT-22 cells [2] = assay: Etoposide-induced DNA damage stress in HT-22 cells, cell viability; assay type: cell-based; conditions: 5 μM for DAC-001 and DAC-003, 10 μM for others; 3 h before 2 μM etoposide; 72 h; p<0.001
Protocol: (§1) HT-22 cells, a hippocampal neuron derived cell line, were used to model neurodegeneration. Two types of insults were used. […] Etoposide, a topoisomerase II inhibitor, stressed cells through DNA damage. These two types of stresses have been documented in neurodegenerative diseases.
Similarly, HT-22 cells were pre-incubated with compounds (5 μM for DAC-001 and DAC-003; 10 μM for others) for 3 h. Then, 2 μM etoposide was added to the culture medium. Cell viability was measured 72 h later (FIG. 5B).

[3] = system: histone lysine residues known to be HDAC1 targets in HEK293T cells; assay: Histone acetylation in HEK293T cells by Western blot; assay type: cell-based, Human; conditions: 10 μM or 50 μM, 20 h
Protocol: DAC compounds were added to HEK293T cells for 20 h. Vehicle was DMSO. Histones were acid-extracted and analyzed by Western blot for Ac-H3K56, Ac-H4K12, Ac-H3K14 and Ac-H2B. Histone 3 was used as the loading control.
Next, what was tested was whether a treatment of HDAC1 activators can increase HDAC1 enzymatic activity in cultured cells. Human HEK293T cells were treated with compounds at different concentrations (10 μM or 50 μM) for 20 h. Histone proteins were extracted, and Western blotting was used to analyze the acetylation of certain histone lysine residues known to be HDAC1 targets.

recombinant HDAC2 = recombinant HDAC2 (Homo sapiens, UniProt Q92769); assay: Microfluidics-based deacetylase assay with HDAC2; assay type: biochemical; conditions: dose response
Sequence of recombinant HDAC2 (Q92769 whole entry, species assumed): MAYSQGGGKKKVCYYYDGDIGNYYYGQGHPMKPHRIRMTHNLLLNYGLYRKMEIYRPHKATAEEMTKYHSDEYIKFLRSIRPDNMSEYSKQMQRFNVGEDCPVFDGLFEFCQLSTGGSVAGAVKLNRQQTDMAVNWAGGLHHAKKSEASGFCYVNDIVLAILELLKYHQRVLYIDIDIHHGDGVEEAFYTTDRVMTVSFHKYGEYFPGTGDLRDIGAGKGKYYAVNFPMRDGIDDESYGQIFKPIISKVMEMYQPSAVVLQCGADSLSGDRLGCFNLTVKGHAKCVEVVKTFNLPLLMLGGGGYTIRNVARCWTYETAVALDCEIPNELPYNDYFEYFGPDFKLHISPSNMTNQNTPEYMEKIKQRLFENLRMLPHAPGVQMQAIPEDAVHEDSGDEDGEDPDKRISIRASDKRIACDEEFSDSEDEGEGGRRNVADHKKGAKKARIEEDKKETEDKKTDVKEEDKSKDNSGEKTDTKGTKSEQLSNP
Protocol: (§2) Based upon the results of the HDAC1 activator screen performed, a total of 21 compounds (for structures, see FIGS. 6A to 6C) were initially selected as hits due to their ability to enhance the deacetylase activity of recombinant HDAC1. Those hits, designated as “DACs” (deacetylase activating compounds), were measured using a microfluidics-based assay with an acetylated peptidic substrate (FAM-TSRHKacKL) over a reaction time of 6 h. The 21 HTS hits plus two controls: ginkgetin (an activator) and TSA (trichostatin A, an inhibitor; for its structure, see FIG. 6A) were retested in an 8-point dose response ranging from 50 μM to 0.02 μM.
(§3) Microfluidics-based deacetylase assays were also performed using recombinant HDAC2, HDAC3, and HDAC8 to determine the selectivity of the compounds. Many of the confirmed compounds also activated HDAC2 isoform to a similar or even greater extent. Some compounds activated HDAC3 and inhibited the HDAC8 isoform.

recombinant HDAC3 = recombinant HDAC3 (Homo sapiens, UniProt O15379); assay: Microfluidics-based deacetylase assay with HDAC3; assay type: biochemical; set-up: dose or concentration left out as unconfirmed; conditions: read-out: maximal effect (activation of HDAC3)
Sequence of recombinant HDAC3 (O15379 whole entry, species assumed): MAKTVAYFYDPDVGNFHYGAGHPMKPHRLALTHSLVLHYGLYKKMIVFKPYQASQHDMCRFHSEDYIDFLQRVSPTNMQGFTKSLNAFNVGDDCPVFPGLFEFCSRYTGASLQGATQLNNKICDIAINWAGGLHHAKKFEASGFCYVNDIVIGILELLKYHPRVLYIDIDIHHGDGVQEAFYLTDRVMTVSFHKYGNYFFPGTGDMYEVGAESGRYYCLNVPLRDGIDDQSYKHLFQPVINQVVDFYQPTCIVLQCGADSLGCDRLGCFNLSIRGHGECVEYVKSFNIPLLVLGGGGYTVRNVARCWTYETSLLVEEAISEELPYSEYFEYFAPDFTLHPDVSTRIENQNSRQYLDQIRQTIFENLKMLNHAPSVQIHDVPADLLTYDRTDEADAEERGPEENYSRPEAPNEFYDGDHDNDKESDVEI
Sequence of recombinant HDAC3 (Q9Y618 395-489 partner limits assumed, species assumed): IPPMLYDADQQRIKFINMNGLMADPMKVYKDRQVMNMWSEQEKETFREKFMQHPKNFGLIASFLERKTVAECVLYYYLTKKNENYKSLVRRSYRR
Protocol: as §2, §3

HT-22 cells [4] = assay: Glutamate-induced oxidative stress in HT-22 cells, CellTiter-Glo viability; assay type: cell-based; conditions: compound 3 h before 2.5 mM glutamate; p<0.05 versus vehicle; 10 μM DAC-003
Protocol: as §1
HT-22 cells were treated with compounds for 3 h prior to the addition of 2.5 mM glutamate. Cell viability was measured by CellTiter-Glo assays (Promega) (FIG. 5A).

[5] = 8-point dose response 50 μM to 0.02 μM, 6 h

Molecule | Average activation % during HTS (10 μM) [1] | Maximum activation % during dose response (50 μM maximum) (recombinant HDAC1; [5]) | conversion of peptidic substrate FAM-TSRHKacKL to FAM-TSRHKKL (microfluidic fluorescence reader trace) ([1]; FIG. 3A, 3B) | Percent activation (%) Replicate 1 [1] | Percent activation (%) Replicate 2 [1] | Emax (recombinant HDAC1; [5]) | AC50 (recombinant HDAC1) | activation of up to (HDAC1) (recombinant HDAC1) | AC50 (recombinant HDAC2) | Emax (recombinant HDAC2; read-out: maximal effect (activation of HDAC2)) | Average effect (positive control) ([1]; ginkgetin 50 μM, 580 measurements, standard deviation: 4%) | Emax at 10 µM (recombinant HDAC1; plateau at 10 μM, read-out: maximal effect (activation of HDAC1)) | Emax (recombinant HDAC3) | effect on HDAC isoforms in dose response (recombinant HDAC1; all HDAC isoforms) | protection of neurons from excitotoxicity (retention of dendrites) (DIV 14 cortical neurons) | protection against DNA damage stress (cell viability) (HT-22 cells [2]) | levels of acetylated histones (Ac-H3K56, Ac-H3K14, Ac-H4K12, Ac-H2B) [3] | protection from oxidative stress (cell viability) (HT-22 cells [4])
Cc1ccc(C(=O)NC(=S)Nc2ccc(-c3ccc(CO)o3)cc2)cc1 [DAC-001] | 130.5% | – | increased conversion | 122.6% | 138.4% | 287% | 4.05 µM | up to 287% | – | – | – | – | – | – | significant protection | significantly protect cells from DSB-induced cell death; also recorded: significant protection | reduced the levels of Ac-H3K56, Ac-H3K14, Ac-H4K12 and Ac-H2B | –
O=C(NC(=S)Nc1ccc(-c2ccc(CO)o2)cc1)c1cccs1 [DAC-002] | 54.7% | – | – | 52.7% | 56.6% | 221% | 8.31 µM | ≤ 221% | – | – | – | – | – | – | trend of protection | significantly protect cells from DSB-induced cell death; also recorded: significant protection | reduced the levels of Ac-H3K56, Ac-H3K14, Ac-H4K12 and Ac-H2B | –
Cc1cccc2c1[nH]c1nc(N/N=C/c3ccc(O)c(O)c3)nnc12 [DAC-003] | 24.6% | – | – | 24.2% | 24.9% | 34% | – | – | – | – | – | – | – | – | trend of protection | significantly protect cells from DSB-induced cell death; also recorded: significant protection | reduced the levels of Ac-H3K56, Ac-H3K14, Ac-H4K12 and Ac-H2B | significantly protect cells from oxidative insults; also recorded: significantly protect cells from oxidative stress
CCC(=O)C1(Sc2nc3ccccc3[nH]2)CC(C)(C)OC1=O (stereo not shown) [DAC-009] | 18.7% | – | – | 15.1% | 22.2% | 12% | – | – | – | – | – | – | – | – | – | significantly protect cells from DSB-induced cell death; also recorded: significant protection | reduced the levels of Ac-H3K56, Ac-H3K14, Ac-H4K12 and Ac-H2B | –

Now from value to molecule, other results behind:

Average activation % during HTS (10 μM) [1] | Maximum activation % during dose response (50 μM maximum) (recombinant HDAC1; [5]) | conversion of peptidic substrate FAM-TSRHKacKL to FAM-TSRHKKL (microfluidic fluorescence reader trace) ([1]; FIG. 3A, 3B) | Percent activation (%) Replicate 1 [1] | Percent activation (%) Replicate 2 [1] | Emax (recombinant HDAC1; [5]) | AC50 (recombinant HDAC1) | activation of up to (HDAC1) (recombinant HDAC1) | AC50 (recombinant HDAC2) | Emax (recombinant HDAC2; read-out: maximal effect (activation of HDAC2)) | Average effect (positive control) ([1]; ginkgetin 50 μM, 580 measurements, standard deviation: 4%) | Emax at 10 µM (recombinant HDAC1; plateau at 10 μM, read-out: maximal effect (activation of HDAC1)) | Emax (recombinant HDAC3) | Molecule | effect on HDAC isoforms in dose response (recombinant HDAC1; all HDAC isoforms) | protection of neurons from excitotoxicity (retention of dendrites) (DIV 14 cortical neurons) | protection against DNA damage stress (cell viability) (HT-22 cells [2]) | levels of acetylated histones (Ac-H3K56, Ac-H3K14, Ac-H4K12, Ac-H2B) [3] | protection from oxidative stress (cell viability) (HT-22 cells [4])
0% | 0% | – | – | – | – | – | – | – | – | – | – | – | trichostatin A [reference compound] | dose dependent inhibition of all HDAC isoforms | – | – | – | –
25.6% | – | – | – | – | 23% | – | – | 28 µM | 165% | 26% activation | 20% | 20% | COc1cc(O)c2c(=O)cc(-c3ccc(OC)c(-c4c(O)cc(O)c5c(=O)cc(-c6ccc(O)cc6)oc45)c3)oc2c1 [ginkgetin, reference compound] | – | – | – | – | –
17.7% | – | – | 17.5% | 17.9% | 26% | – | – | – | – | – | – | – | COc1ccc(CNc2cc(C)ccc2C)c(OC)c1 [DAC-012] | – | – | significantly protect cells from DSB-induced cell death; also recorded: significant protection | – | trend of protection

From patent US11084803B2, “Activators of class I histone deacetylases (HDACs) and uses thereof” (Massachusetts Institute of Technology, priority 2011, dated 2021)
